# According to article PMC6409085, “Three odorant-binding proteins are involved in the behavioral response of Sogatella furcifera to rice plant volatiles” (PeerJ, 2019):
# Values joined by “and” are separate entries in the source; they are usually repeats but may differ in a detail not shown here. Equal values may be shown once.
# Tests used:
# Experiment in all cases: biochemical
# Format in all cases: binding
# SfurOBP3 = SfurOBP3 (Sogatella furcifera, UniProt V5T818); conditions: for Fluorescence competitive binding assay, fluorescence intensity: OBP3, three replicate columns
# Chain of SfurOBP3 (V5T818 entry or part of it): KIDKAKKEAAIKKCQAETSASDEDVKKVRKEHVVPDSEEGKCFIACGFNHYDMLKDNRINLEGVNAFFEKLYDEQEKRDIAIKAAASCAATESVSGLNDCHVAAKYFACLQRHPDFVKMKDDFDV
# In short: (§1)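 Fluorescence competitive binding with 1-NPN as reporter: 2.0 µM protein and 2.0 µM 1-NPN in 50 mM Tris-HCl pH 7.4, odorant added at 2–20 µM final. Excitation 337 nm, emission 390–490 nm read 2 min after addition, triplicates. Ki = IC50/(1 + [1-NPN]/K1-NPN).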
# SfurOBP11 = SfurOBP11 (Sogatella furcifera, UniProt V5T6E3)
# Chain of SfurOBP11 (V5T6E3 entry or part of it): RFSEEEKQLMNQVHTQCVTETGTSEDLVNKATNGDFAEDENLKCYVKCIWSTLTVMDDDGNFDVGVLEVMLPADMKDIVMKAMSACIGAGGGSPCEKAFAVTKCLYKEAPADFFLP
# In short: as §1
# SfurOBP1 = SfurOBP1 (Sogatella furcifera, UniProt V5T8N5); conditions: for Fluorescence competitive binding assay, fluorescence intensity: OBP1, three replicate columns
# Chain of SfurOBP1 (V5T8N5 entry or part of it): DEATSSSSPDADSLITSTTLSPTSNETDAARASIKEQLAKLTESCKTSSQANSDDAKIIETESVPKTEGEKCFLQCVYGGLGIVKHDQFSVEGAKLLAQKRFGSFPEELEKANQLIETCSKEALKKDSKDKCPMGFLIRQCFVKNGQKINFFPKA
# In short: as §1
# SfurOBP2 = SfurOBP2 (Sogatella furcifera, UniProt V5T759)
# Chain of SfurOBP2 (V5T759 entry or part of it): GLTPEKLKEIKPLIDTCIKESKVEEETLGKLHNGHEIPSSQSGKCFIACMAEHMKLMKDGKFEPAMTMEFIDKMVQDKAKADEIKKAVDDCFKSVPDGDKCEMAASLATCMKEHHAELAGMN
# In short: as §1
smiles,measurement,setting,value
CCCCCCCCCCOCCCCCCCCCC [didecyl ether],"Fluorescence competitive binding assay, fluorescence intensity",SfurOBP3; ligand concentration 2,87733 and 85025 and 77897
same,"Fluorescence competitive binding assay, fluorescence intensity",SfurOBP3; ligand concentration 4,115777 and 106868 and 104692
same,"Fluorescence competitive binding assay, fluorescence intensity",SfurOBP3; ligand concentration 6,125530 and 125631 and 129726
same,"Fluorescence competitive binding assay, fluorescence intensity",SfurOBP3; ligand concentration 8,107521 and 145667 and 147221
same,"Fluorescence competitive binding assay, fluorescence intensity",SfurOBP3; ligand concentration 10,173091 and 157740 and 127122
same,"Fluorescence competitive binding assay, fluorescence intensity",SfurOBP3; ligand concentration 12,158103 and 182941 and 142916
same,"Fluorescence competitive binding assay, fluorescence intensity",SfurOBP3; ligand concentration 14,176147 and 111843 and 160442
same,"Fluorescence competitive binding assay, fluorescence intensity",SfurOBP3; ligand concentration 16,151941 and 158990 and 157774
same,"Fluorescence competitive binding assay, fluorescence intensity",SfurOBP3; ligand concentration 18,173084 and 168625 and 167342
same,"Fluorescence competitive binding assay, fluorescence intensity",SfurOBP3; ligand concentration 20,193319 and 125518 and 175321
same,IC50,"SfurOBP3; SfurOBP3, protein and 1-NPN both 2.0 µM, competitor 2-20 µM, read-out: IC50",> 20 µM
same,IC50,"SfurOBP11; SfurOBP11, protein and 1-NPN both 2.0 µM, competitor 2-20 µM, read-out: IC50",> 20 µM
same,"Fluorescence intensity, fluorescence competitive binding assay, OBP11","SfurOBP11; ligand concentration 2, replicate 1",43164
same,"Fluorescence intensity, fluorescence competitive binding assay, OBP11","SfurOBP11; ligand concentration 2, replicate 2",38605
same,"Fluorescence intensity, fluorescence competitive binding assay, OBP11","SfurOBP11; ligand concentration 2, replicate 3",37407
same,"Fluorescence intensity, fluorescence competitive binding assay, OBP11","SfurOBP11; ligand concentration 4, replicate 1",45394
same,"Fluorescence intensity, fluorescence competitive binding assay, OBP11","SfurOBP11; ligand concentration 4, replicate 2",44519
same,"Fluorescence intensity, fluorescence competitive binding assay, OBP11","SfurOBP11; ligand concentration 4, replicate 3",44324
same,"Fluorescence intensity, fluorescence competitive binding assay, OBP11","SfurOBP11; ligand concentration 6, replicate 1",52018
same,"Fluorescence intensity, fluorescence competitive binding assay, OBP11","SfurOBP11; ligand concentration 6, replicate 2",51596
same,"Fluorescence intensity, fluorescence competitive binding assay, OBP11","SfurOBP11; ligand concentration 6, replicate 3",52439
same,"Fluorescence intensity, fluorescence competitive binding assay, OBP11","SfurOBP11; ligand concentration 8, replicate 1",52547
same,"Fluorescence intensity, fluorescence competitive binding assay, OBP11","SfurOBP11; ligand concentration 8, replicate 2",53605
same,"Fluorescence intensity, fluorescence competitive binding assay, OBP11","SfurOBP11; ligand concentration 8, replicate 3",57390
same,"Fluorescence intensity, fluorescence competitive binding assay, OBP11","SfurOBP11; ligand concentration 10, replicate 1",53386
same,"Fluorescence intensity, fluorescence competitive binding assay, OBP11","SfurOBP11; ligand concentration 10, replicate 2",50348
same,"Fluorescence intensity, fluorescence competitive binding assay, OBP11","SfurOBP11; ligand concentration 10, replicate 3",61467
same,"Fluorescence intensity, fluorescence competitive binding assay, OBP11","SfurOBP11; ligand concentration 12, replicate 1",60450
same,"Fluorescence intensity, fluorescence competitive binding assay, OBP11","SfurOBP11; ligand concentration 12, replicate 2",60637
same,"Fluorescence intensity, fluorescence competitive binding assay, OBP11","SfurOBP11; ligand concentration 12, replicate 3",60823
same,"Fluorescence intensity, fluorescence competitive binding assay, OBP11","SfurOBP11; ligand concentration 14, replicate 1",64649
same,"Fluorescence intensity, fluorescence competitive binding assay, OBP11","SfurOBP11; ligand concentration 14, replicate 2",70642
same,"Fluorescence intensity, fluorescence competitive binding assay, OBP11","SfurOBP11; ligand concentration 14, replicate 3",65311
same,"Fluorescence intensity, fluorescence competitive binding assay, OBP11","SfurOBP11; ligand concentration 16, replicate 1",64270
same,"Fluorescence intensity, fluorescence competitive binding assay, OBP11","SfurOBP11; ligand concentration 16, replicate 2",67002
same,"Fluorescence intensity, fluorescence competitive binding assay, OBP11","SfurOBP11; ligand concentration 16, replicate 3",65982
same,"Fluorescence intensity, fluorescence competitive binding assay, OBP11","SfurOBP11; ligand concentration 18, replicate 1",78706
same,"Fluorescence intensity, fluorescence competitive binding assay, OBP11","SfurOBP11; ligand concentration 18, replicate 2",81987
same,"Fluorescence intensity, fluorescence competitive binding assay, OBP11","SfurOBP11; ligand concentration 18, replicate 3",75370
same,"Fluorescence intensity, fluorescence competitive binding assay, OBP11","SfurOBP11; ligand concentration 20, replicate 1",97463
same,"Fluorescence intensity, fluorescence competitive binding assay, OBP11","SfurOBP11; ligand concentration 20, replicate 2",75326
same,"Fluorescence intensity, fluorescence competitive binding assay, OBP11","SfurOBP11; ligand concentration 20, replicate 3",72923
same,"Fluorescence competitive binding assay, fluorescence intensity",SfurOBP1; ligand concentration 2 (μM),13439 and 10181 and 10387
same,"Fluorescence competitive binding assay, fluorescence intensity",SfurOBP1; ligand concentration 4 (μM),12999 and 14054 and 13054
same,"Fluorescence competitive binding assay, fluorescence intensity",SfurOBP1; ligand concentration 6 (μM),17843 and 17435 and 18755
same,"Fluorescence competitive binding assay, fluorescence intensity",SfurOBP1; ligand concentration 8 (μM),20344 and 21618 and 19391
same,"Fluorescence competitive binding assay, fluorescence intensity",SfurOBP1; ligand concentration 10 (μM),25143 and 20920 and 29597
same,"Fluorescence competitive binding assay, fluorescence intensity",SfurOBP1; ligand concentration 12 (μM),25050 and 26471 and 24718
same,"Fluorescence competitive binding assay, fluorescence intensity",SfurOBP1; ligand concentration 14 (μM),31790 and 28307 and 28799
same,"Fluorescence competitive binding assay, fluorescence intensity",SfurOBP1; ligand concentration 16 (μM),25660 and 26360 and 27874
same,"Fluorescence competitive binding assay, fluorescence intensity",SfurOBP1; ligand concentration 18 (μM),34663 and 37908 and 36994
same,"Fluorescence competitive binding assay, fluorescence intensity",SfurOBP1; ligand concentration 20 (μM),37718 and 33824 and 31648
same,IC50,"SfurOBP1; SfurOBP1, protein and 1-NPN both 2.0 µM, competitor 2-20 µM, read-out: IC50",> 20 µM
same,IC50,"SfurOBP2; SfurOBP2, protein and 1-NPN both 2.0 µM, competitor 2-20 µM, read-out: IC50",> 20 µM
same,"Fluorescence competitive binding assay, OBP2 (raw fluorescence reading)","SfurOBP2; ligand concentration 2 (unit not given), replicate column 1 of 3",18915
same,"Fluorescence competitive binding assay, OBP2 (raw fluorescence reading)","SfurOBP2; ligand concentration 2 (unit not given), replicate column 2 of 3",20597
same,"Fluorescence competitive binding assay, OBP2 (raw fluorescence reading)","SfurOBP2; ligand concentration 2 (unit not given), replicate column 3 of 3",23440
same,"Fluorescence competitive binding assay, OBP2 (raw fluorescence reading)","SfurOBP2; ligand concentration 4 (unit not given), replicate column 1 of 3",24181
same,"Fluorescence competitive binding assay, OBP2 (raw fluorescence reading)","SfurOBP2; ligand concentration 4 (unit not given), replicate column 2 of 3",28014
same,"Fluorescence competitive binding assay, OBP2 (raw fluorescence reading)","SfurOBP2; ligand concentration 4 (unit not given), replicate column 3 of 3",25410
same,"Fluorescence competitive binding assay, OBP2 (raw fluorescence reading)","SfurOBP2; ligand concentration 6 (unit not given), replicate column 1 of 3",34688
same,"Fluorescence competitive binding assay, OBP2 (raw fluorescence reading)","SfurOBP2; ligand concentration 6 (unit not given), replicate column 2 of 3",31794
same,"Fluorescence competitive binding assay, OBP2 (raw fluorescence reading)","SfurOBP2; ligand concentration 6 (unit not given), replicate column 3 of 3",34987
same,"Fluorescence competitive binding assay, OBP2 (raw fluorescence reading)","SfurOBP2; ligand concentration 8 (unit not given), replicate column 1 of 3",33082
same,"Fluorescence competitive binding assay, OBP2 (raw fluorescence reading)","SfurOBP2; ligand concentration 8 (unit not given), replicate column 2 of 3",40303
same,"Fluorescence competitive binding assay, OBP2 (raw fluorescence reading)","SfurOBP2; ligand concentration 8 (unit not given), replicate column 3 of 3",37763
same,"Fluorescence competitive binding assay, OBP2 (raw fluorescence reading)","SfurOBP2; ligand concentration 10 (unit not given), replicate column 1 of 3",37285
same,"Fluorescence competitive binding assay, OBP2 (raw fluorescence reading)","SfurOBP2; ligand concentration 10 (unit not given), replicate column 2 of 3",44653
same,"Fluorescence competitive binding assay, OBP2 (raw fluorescence reading)","SfurOBP2; ligand concentration 10 (unit not given), replicate column 3 of 3",45169
same,"Fluorescence competitive binding assay, OBP2 (raw fluorescence reading)","SfurOBP2; ligand concentration 12 (unit not given), replicate column 1 of 3",40538
same,"Fluorescence competitive binding assay, OBP2 (raw fluorescence reading)","SfurOBP2; ligand concentration 12 (unit not given), replicate column 2 of 3",46457
same,"Fluorescence competitive binding assay, OBP2 (raw fluorescence reading)","SfurOBP2; ligand concentration 12 (unit not given), replicate column 3 of 3",42564
same,"Fluorescence competitive binding assay, OBP2 (raw fluorescence reading)","SfurOBP2; ligand concentration 14 (unit not given), replicate column 1 of 3",47395
same,"Fluorescence competitive binding assay, OBP2 (raw fluorescence reading)","SfurOBP2; ligand concentration 14 (unit not given), replicate column 2 of 3",46610
same,"Fluorescence competitive binding assay, OBP2 (raw fluorescence reading)","SfurOBP2; ligand concentration 14 (unit not given), replicate column 3 of 3",49253
same,"Fluorescence competitive binding assay, OBP2 (raw fluorescence reading)","SfurOBP2; ligand concentration 16 (unit not given), replicate column 1 of 3",41133
same,"Fluorescence competitive binding assay, OBP2 (raw fluorescence reading)","SfurOBP2; ligand concentration 16 (unit not given), replicate column 2 of 3",50168
same,"Fluorescence competitive binding assay, OBP2 (raw fluorescence reading)","SfurOBP2; ligand concentration 16 (unit not given), replicate column 3 of 3",50416
same,"Fluorescence competitive binding assay, OBP2 (raw fluorescence reading)","SfurOBP2; ligand concentration 18 (unit not given), replicate column 1 of 3",50240
same,"Fluorescence competitive binding assay, OBP2 (raw fluorescence reading)","SfurOBP2; ligand concentration 18 (unit not given), replicate column 2 of 3",52962
same,"Fluorescence competitive binding assay, OBP2 (raw fluorescence reading)","SfurOBP2; ligand concentration 18 (unit not given), replicate column 3 of 3",54896
same,"Fluorescence competitive binding assay, OBP2 (raw fluorescence reading)","SfurOBP2; ligand concentration 20 (unit not given), replicate column 1 of 3",51479
same,"Fluorescence competitive binding assay, OBP2 (raw fluorescence reading)","SfurOBP2; ligand concentration 20 (unit not given), replicate column 2 of 3",53666
same,"Fluorescence competitive binding assay, OBP2 (raw fluorescence reading)","SfurOBP2; ligand concentration 20 (unit not given), replicate column 3 of 3",47381
